From patent US10259792B2, “Crystal of uracil compound” (priority 2015, dated 2019) come the findings set out here.

Data set [1] can be described thus: Blood concentration measurement test (oral administration to mice). The class given is in vivo. The note with it: 0.5% HPMC suspension, 50 mg/10 mL/kg, fed Balb/cA mice, compound (1) in plasma by LC-MS/MS. Here is the method: A 0.5% HPMC dosing suspension (50 mg/10 mL/kg) of each of crystal I and crystal II was prepared. These suspensions were orally administered to mice (Balb/cA), which had been reared under feeding conditions, in a volume of 10 mL per kg body weight using an oral gavage tube. After administration, mice were returned to the mouse cage, and their conditions were checked. In the cage, water and feed were available ad libitum. At 0.5, 1, 2, 4, 6, and 8 hours after administration, mice were anesthetized with isoflurane, and 60 μL of blood was collected from the orbital venous plexus using a capillary blood collecting tube. The collected blood was ice-cooled, and centrifuged to separate plasma. The mice after blood collection were returned to the animal rearing cage, and their conditions after recovering from anesthesia were checked. After the final blood collection, the depth of isoflurane anesthesia was checked, and then the mice were euthanized by cervical dislocation.
From the concentrations of compound (1) in plasma measured by MRM method using LC-MS/MS, AUC0-24 hr was calculated by log-linear trapezoidal method using Phoenix WinNonlin (v6.3.0), software manufactured by Pharsight.

Data set [2] in a line: Solid stability test (under light exposure). The settings on record: for Change of chemical purity / Change of crystal form by powder X-ray crystallography: 1 month under light exposure; for Chemical purity, Initial value / Chemical purity, One month later: HPLC; for Chemical purity, Initial value: before storage; for Chemical purity, One month later: stored 1 month under light exposure in clear glass bottle. Type of data set: physicochemical. As for the experimental part:
The solid stabilities of crystal I and crystal II obtained in the Examples, when stored for 1 month under light exposure, were measured under the following conditions.
Storage condition: Sample was placed in a transparent glass bottle, then the lid was placed, and the grove between the lid and the bottle was sealed by the grafting tape.
Measurement point: 1 Month
Stored amount: About 30 mg
Storage container: Clear glass bottle
Chemical purity of compound (1) in the sample solution was measured by HPLC analysis. The apparatuses, including the apparatus for data processing, were handled according to the processes and procedures instructed for the apparatuses. (Apparatus: Shimadzu Corporation LC-20AB)
Column: L-column 2 ODS manufactured by Chemicals Evaluation and Research Institute, 4.6×150 mm, 5 μm
Column temperature: 50° C.
Column flow rate: 1.0 mL/min
Mobile phase: A; Water, B; Acetonitrile
Sample concentration: 1.0 mg/mL

The structures appear in SMILES notation.

In turn, `C[C@@H](NS(=O)(=O)CCCOCn1ccc(=O)[nH]c1=O)c1cccc(OC2CCCC2)c1` [Crystal II, (R)—N-(1-(3-(cyclopentyloxy)phenyl)ethyl)-3-((2,4-dioxo-3,4-dihydropyrimidin-1(2H)-yl)methoxy)propane-1-sulfonamide] came in with an AUC0-24 hr in data set [1] of 144.51 µM·h. In data set [2], the “Change of chemical purity” value is on record as “did not change”; the “Change of crystal form by powder X-ray crystallography” value is “no change of crystal form”; the “Chemical purity, Initial value” stood at 99.0%; the “Chemical purity, One month later” value is on record as 99.1%.
Take `C[C@@H](NS(=O)(=O)CCCOCn1ccc(=O)[nH]c1=O)c1cccc(OC2CCCC2)c1` [Crystal I, (R)—N-(1-(3-(cyclopentyloxy)phenyl)ethyl)-3-((2,4-dioxo-3,4-dihydropyrimidin-1(2H)-yl)methoxy)propane-1-sulfonamide]: the AUC(0-t) in data set [1] (Balb/cA, mouse, plasma, po, 50 mg/kg, read-out: AUC0-24 hr) was 122 µM·h. Further, in data set [2], the “Change of chemical purity” value was “did not change”; the “Change of crystal form by powder X-ray crystallography” value was “no change of crystal form”; the “Chemical purity, Initial value” was 97.8%; the “Chemical purity, One month later” value came to 97.4%.
